Test results taken from US20240018119A1, “CARBOXAMIDE DERIVATIVE AND PHARMACEUTICAL COMPOSITION COMPRISING SAME AS ACTIVE INGREDIENT FOR PREVENTING OR TREATING MENTAL ILLNESS” (DAEGU-GYEONGBUK MEDICAL INNOVATION FOUNDATION, priority 2020, published 2024).
Read-outs that look alike come from different tables or passages of the source.

Legend:
Assay type in all cases: cell-based
serotonin transporter = target: T1, serotonin transporter (Homo sapiens, UniProt P31645); assay: Serotonin reuptake inhibition in transporter-transfected HEK-293 cells ([3H]-5-HT); settings: for Triple reuptake inhibition (Ratio %) SERT: compound 1 μM, [3H]-5-HT, relative to control without compound (100%), lower = more inhibition
T1 construct: expressed in transfected cells; host or cells: HEK-293
Experimental: (§1) To evaluate the reuptake inhibitory effect on dopamine, the dopamine transporter cDNA was transfected using the HEK-293 cell line, and then sub-seeded in a 24 well plate the next day. After removing the medium, each compound of the Examples or Comparative Examples diluted to 1 μM in uptake buffer was added to a concentration of 200 μl/well and cultured at 37° C. for 15 minutes. 100 μl of uptake buffer containing 20-30 nM [3H]-DA was added and cultured at 37° C. for 5 minutes. The reaction solution was quickly removed and washed three times with 1 ml ice-cold uptake buffer. After dissolving the resultant in 1% SDS (0.5 ml), the degree of binding of radioisotope-labeled dopamine to the transporter was measured.
(§2) For norepinephrine (NE) and serotonin (5-HT), the degree of binding of radioisotope-labeled norepinephrine or serotonin to the transporter was measured in the same manner as above, except that cells transfected with NE or 5-HT transporter cDNA were used and [3H]-NE or [3H]-5-HT was used as a substrate.
(§3) In addition, when evaluating the reuptake inhibitory effect on dopamine, norepinephrine, and serotonin, the same method was performed without treating each compound of the Examples or Comparative Examples as a control, the degree of binding of radioisotope-labeled dopamine, norepinephrine, and serotonin to the transporter was measured, and by using this as a standard (100%), the triple reuptake inhibitory effect was evaluated as a relative ratio (Ratio %). That is, in the control group, the binding of dopamine, norepinephrine, and serotonin to transporters is not inhibited, but when each compound of the Examples is treated and thus the binding is inhibited, the Patio % value decreases.
In addition, in the case of the compound of Comparative Example 1, IC50 was obtained by the same method as the Example Compounds.

dopamine transporter = target: T2, dopamine transporter (Homo sapiens, UniProt Q01959); assay: Dopamine reuptake inhibition in transporter-transfected HEK-293 cells ([3H]-DA); settings: for Triple reuptake inhibition (Ratio %) DAT: compound 1 μM, 20-30 nM [3H]-DA, relative to control without compound (100%), lower = more inhibition
T2 construct: expressed in transfected cells; host or cells: HEK-293
Experimental: as §1, §3
(§4) Meanwhile, the Patio % values were compared, and in the case of the compounds of Examples 6, 9, 10, 19, 20, 22, 24, 28, 30, 31, 32, 33, 35, 41, 42, 48, 49, 51, 55, 56, 59, 61, 63, 64, 65, 66, 74 and 76 with excellent reuptake inhibitory effects on dopamine, norepinephrine and serotonin, the concentration at which the Ratio % is 50% was calculated using a total of 6 concentrations (1 nM, 5 nM, 10 nM, 50 nM, 100 nM, and 1 μM) and expressed as IC50. In addition, in the case of the compound of Comparative Example 1, IC50 was obtained by the same method as the Example Compounds.

[1] = target: T3, norepinephrine transporter (Homo sapiens, UniProt P23975); assay: Norepinephrine reuptake inhibition in transporter-transfected HEK-293 cells ([3H]-NE); settings: for Triple reuptake inhibition (Ratio %) NET: compound 1 μM, [3H]-NE, relative to control without compound (100%), lower = more inhibition
T3 construct: expressed in transfected cells; host or cells: HEK-293
Experimental: as §1, §2, §3, §4

[2] = concentration at which Ratio % is 50%, 6 concentrations 1 nM to 1 μM, read-out: Triple reuptake inhibition (IC50, μM) SERT
[3] = concentration at which Ratio % is 50%, 6 concentrations 1 nM to 1 μM, read-out: Triple reuptake inhibition (IC50, μM) DAT
[4] = concentration at which Ratio % is 50%, 6 concentrations 1 nM to 1 μM, read-out: Triple reuptake inhibition (IC50, μM) NET

T1 sequence (P31645 whole entry): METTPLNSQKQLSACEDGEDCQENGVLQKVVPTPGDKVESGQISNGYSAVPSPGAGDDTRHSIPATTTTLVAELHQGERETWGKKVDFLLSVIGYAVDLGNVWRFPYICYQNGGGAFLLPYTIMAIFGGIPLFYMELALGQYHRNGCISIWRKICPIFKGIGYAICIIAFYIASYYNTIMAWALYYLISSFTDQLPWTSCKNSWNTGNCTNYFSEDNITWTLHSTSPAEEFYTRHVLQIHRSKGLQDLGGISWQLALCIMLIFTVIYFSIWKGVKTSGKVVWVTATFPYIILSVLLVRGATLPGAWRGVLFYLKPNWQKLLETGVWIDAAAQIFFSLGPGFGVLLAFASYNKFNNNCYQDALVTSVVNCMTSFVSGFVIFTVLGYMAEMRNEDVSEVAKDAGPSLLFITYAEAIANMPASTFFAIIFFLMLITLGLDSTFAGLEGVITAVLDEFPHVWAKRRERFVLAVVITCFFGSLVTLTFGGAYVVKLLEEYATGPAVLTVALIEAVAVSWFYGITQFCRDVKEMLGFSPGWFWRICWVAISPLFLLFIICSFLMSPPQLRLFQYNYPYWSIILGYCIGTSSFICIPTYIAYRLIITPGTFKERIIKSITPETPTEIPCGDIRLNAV
T2 sequence (Q01959 whole entry): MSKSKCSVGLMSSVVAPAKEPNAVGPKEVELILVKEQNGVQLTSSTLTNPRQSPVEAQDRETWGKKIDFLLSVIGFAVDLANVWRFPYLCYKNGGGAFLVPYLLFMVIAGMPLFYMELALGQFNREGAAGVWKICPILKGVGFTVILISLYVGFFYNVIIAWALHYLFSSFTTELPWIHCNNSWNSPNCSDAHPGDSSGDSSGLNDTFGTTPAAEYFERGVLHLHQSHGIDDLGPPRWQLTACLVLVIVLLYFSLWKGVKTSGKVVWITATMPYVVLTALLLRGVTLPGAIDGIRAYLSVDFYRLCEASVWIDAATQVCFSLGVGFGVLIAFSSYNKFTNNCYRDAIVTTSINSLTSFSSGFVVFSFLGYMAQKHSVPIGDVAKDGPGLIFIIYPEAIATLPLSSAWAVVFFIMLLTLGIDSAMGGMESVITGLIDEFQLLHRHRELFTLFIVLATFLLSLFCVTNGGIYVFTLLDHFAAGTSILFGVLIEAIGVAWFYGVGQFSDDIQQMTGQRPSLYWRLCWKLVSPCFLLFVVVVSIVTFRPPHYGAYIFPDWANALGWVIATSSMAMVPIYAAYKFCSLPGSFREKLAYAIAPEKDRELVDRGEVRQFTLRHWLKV
T3 sequence (P23975 whole entry, species assumed): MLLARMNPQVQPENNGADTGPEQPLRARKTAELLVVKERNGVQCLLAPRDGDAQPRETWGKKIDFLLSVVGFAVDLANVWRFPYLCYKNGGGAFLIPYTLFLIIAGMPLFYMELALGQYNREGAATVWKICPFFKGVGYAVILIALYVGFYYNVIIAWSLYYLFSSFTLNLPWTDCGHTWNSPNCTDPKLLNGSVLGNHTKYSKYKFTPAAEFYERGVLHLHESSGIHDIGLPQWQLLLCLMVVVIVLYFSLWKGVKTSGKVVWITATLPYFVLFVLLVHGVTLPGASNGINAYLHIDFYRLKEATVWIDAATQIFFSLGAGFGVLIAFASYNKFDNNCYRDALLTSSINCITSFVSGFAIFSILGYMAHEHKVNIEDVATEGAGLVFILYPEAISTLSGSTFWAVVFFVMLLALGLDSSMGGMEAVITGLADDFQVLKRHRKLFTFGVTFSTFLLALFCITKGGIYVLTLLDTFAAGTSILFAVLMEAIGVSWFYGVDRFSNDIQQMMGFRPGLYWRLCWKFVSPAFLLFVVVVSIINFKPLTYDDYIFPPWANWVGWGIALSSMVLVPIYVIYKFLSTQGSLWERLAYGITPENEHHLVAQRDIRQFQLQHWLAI

SMILES | Triple reuptake inhibition (Ratio %) SERT (serotonin transporter) | Triple reuptake inhibition (Ratio %) DAT (dopamine transporter) | Triple reuptake inhibition (Ratio %) NET [1] | IC50 (serotonin transporter; [2]) | IC50 (dopamine transporter; [3]) | IC50 [1, 4] | IC50 (serotonin transporter) | IC50 (dopamine transporter) | IC50 [1]
O=C(NCCN1CCCC(Cc2ccccc2)C1)c1cc2ccccc2[nH]1 (centres unmarked) [Example 38, N-(2-(3-benzylpiperidin-1-yl)ethyl)-1H-indol-2-carboxamide] | 70.46% | 43.94% | 70.02% |  |  |  |  |  | 
O=C(NCCN1CCC(Cc2ccccc2)CC1)c1nc2ccccc2s1 [Example 55, N-(2-(4-benzylpiperidin-1-yl)ethyl)benzo[d]thiazol-2-carboxamide] | 53.01% | 39.32% | 57.47% | 3.01 µM | 2.64 µM | 2.48 µM |  |  | 
O=C(NCCN1CCN(CC2CCOCC2)CC1)c1cc2ccccc2[nH]1 [Example 29, N-(2-(4-((tetrahydro-2H-pyran-4-yl)methyl)piperazin-1-yl)ethyl)-1H-indol-2-carboxamide] | 94.24% | 113.83% | 97.94% |  |  |  |  |  | 
O=C(NCCN1CCN(Cc2ccc(Cl)c(Cl)c2)CC1)c1cc2ccccc2[nH]1 [Example 22, N-(2-(4-(3,4-dichlorobenzyl)piperazin-1-yl)ethyl)-1H-indol-2-carboxamide] | 52.47% | 63.72% | 91.21% | > 10 µM |  |  |  |  | 
COc1ccc2[nH]c(C(=O)NCCN3CCC(Cc4ccccc4)CC3)nc2c1 [Example 59, N-(2-(4-benzylpiperidin-1-yl)ethyl)-5-methoxy-1H-benzo[d]imidazol-2-carboxamide] | 45.80% | 17.60% | 43.43% | 0.198 µM | 0.198 µM | 0.257 µM |  |  | 
O=C(NCCN1CCN(c2cccc(C(F)(F)F)c2)CC1)c1ccc2cc(Br)ccc2c1 [Example 2] | 78.42% | 107.77% | 120.40% |  |  |  |  |  | 
Cc1c(C(=O)NCCN2CCC(Cc3ccccc3)CC2)[nH]c2ccccc12 [Example 20, N-(2-(4-benzylpiperidin-1-yl)ethyl)-3-methyl-1H-indol-2-carboxamide] | 83.11% | 43.53% | 85.70% |  | 1.37 µM |  |  |  | 
O=C(NCCN1CCC(Cc2ccccc2)CC1)c1cc2cc(C(F)(F)F)ccc2[nH]1 [Example 40, N-(2-(4-benzylpiperidin-1-yl)ethyl)-5-(trifluoromethyl)-1H-indol-2-carboxamide] | 92.65% | 35.13% | 59.50% |  |  |  |  |  | 
N#Cc1ccc2[nH]c(C(=O)NCCN3CCC(Cc4ccccc4)CC3)cc2c1 [Example 41, N-(2-(4-benzylpiperidin-1-yl)ethyl)-5-cyano-1H-indol-2-carboxamide] | 48.50% | 12.3% | 31.85% | 0.525 µM | 0.171 µM | 0.371 µM |  |  | 
O=C(NCCNC(=O)c1cc2ccccc2[nH]1)c1ccc2ccccc2c1 [Example 45, N-(2-(2-naphthamido)ethyl)-1H-indol-2-carboxamide] | 91.05% | 110.91% | 102.98% |  |  |  |  |  | 
O=C(NCCN1CCC(Cc2ccc(Cl)c(Cl)c2)CC1)c1ccc2cc(Br)ccc2c1 [Example 9, 6-bromo-N-(2-(4-(3,4-dichlorobenzyl)piperidin-1-yl)ethyl)-2-naphthamide] | 9.92% | 78.56% | 98.42% | 3.07 µM | 2.91 µM |  |  |  | 
O=C(NCCN1CCC(Cc2ccccc2)CC1)C1CC1 [Example 69, N-(2-(4-benzylpiperidin-1-yl)ethyl)cyclopropanecarboxamide] | 113.80% | 92.83% | 86.02% |  |  |  |  |  | 
O=C(NCCN1CCC(Cc2ccccc2)CC1)C1Cc2ccccc2N1 (centres unmarked) [Example 57, N-(2-(4-benzylpiperidin-1-yl)ethyl) indolin-2-carboxamide] | 77.95% | 60.52% | 124.77% |  |  |  |  |  | 
CCCCOc1ccc2[nH]c(C(=O)NCCN3CCC(Cc4ccccc4)CC3)cc2c1 [Example 67, N-(2-(4-benzylpiperidin-1-yl)ethyl)-5-butoxy-1H-indol-2-carboxamide] | 53.46% | 56.05% | 92.60% |  |  |  |  |  | 
O=C(NCCN1CCC(Cc2ccccc2)CC1)c1cc2cccnc2[nH]1 [Example 56, N-(2-(4-benzylpiperidin-1-yl)ethyl)-1H-pyrrolol[2,3-b]pyridin-2-carboxamide] | 76.79% | 37.06% | 81.84% |  | 1.48 µM |  |  |  | 
NC(=O)c1ccc2[nH]c(C(=O)NCCN3CCC(Cc4ccccc4)CC3)cc2c1 [Example 82, N2-(2-(4-benzylpiperidin-1-yl)ethyl)-1H-indol-2,5-dicarboxamide] | 41.20% | 47.70% | 37.73% |  |  |  |  |  | 
O=C(CCC(=O)N1CCC(Cc2ccccc2)CC1)Nc1cc2ccccc2[nH]1 [Example 77, 4-(4-benzylpiperidin-1-yl)-N-(1H-indol-2-yl)-4-oxobutanamide] | 98.61% | 111.32% | 91.05% |  |  |  |  |  | 
O=C(NCCN1CCC(Cc2ccccc2)CC1)c1cc2cc(O)c(O)cc2[nH]1 [Example 63, N-(2-(4-benzylpiperidin-1-yl)ethyl)-5,6-dihydroxy-1H-indol-2-carboxamide] | 38.25% | 13.34% | 48.43% | 0.369 µM | 0.087 µM | 0.092 µM |  |  | 
O=C(NCCn1ccc(-c2ccc(F)cn2)n1)c1cc2ccccc2[nH]1 [Example 52, N-(2-(3-(5-fluoropyridin-2-yl)-1H-pyrazol-1-yl)ethyl)-1H-indol-2-carboxamide] | 93.19% | 85.39% | 82.74% |  |  |  |  |  | 
O=C(NCCN1CCC(Cc2ccc(Cl)c(Cl)c2)CC1)c1cc2cc(O)c(O)cc2[nH]1 [Example 65, N-(2-(4-(3,4-dichlorobenzyl)piperidin-1-yl)ethyl)-5,6-dihydroxy-1H-indol-2-carboxamide] | 10.79% | 7.57% | 73.83% | 0.044 µM | 0.049 µM | 5.73 µM |  |  | 
CC1(C(=O)NCCN2CCC(Cc3ccccc3)CC2)CC1 [Example 70, N-(2-(4-benzylpiperidine-1-yl)ethyl)-1-methylcyclopropanecarboxamide] | 102.65% | 107.49% | 116.85% |  |  |  |  |  | 
O=C(CCN1CCC(Cc2ccccc2)CC1)Nc1cc2ccccc2[nH]1 [Example 76, 3-(4-benzylpiperidin-1-yl)-N-(1H-indol-2-yl)propanamide] | 68.60% | 36.87% | 32.60% |  |  |  | 0.811 µM | 0.278 µM | 0.496 µM
